Values of other authors, collected in US12295926B1, “Modified release gamma-hydroxybutyrate formulations having improved pharmacokinetics” (Flamel Ireland Limited, priority 2022, dated 2025).
Read-outs that look alike come from different tables or passages of the source.

Legend:
mouse = details: 2-year
rat [1] = details: 2-year
plasma proteins = details: 3 mcg/mL to 300 mcg/mL
[2] = not given; remark: listed apart in the source
[3] = 4.5 g oral
CYP1A2 = biological target: T1, CYP1A2 (Homo sapiens, UniProt P05177); details: up to 3 mM (378 mcg/mL)
T1 sequence (P05177 1-516): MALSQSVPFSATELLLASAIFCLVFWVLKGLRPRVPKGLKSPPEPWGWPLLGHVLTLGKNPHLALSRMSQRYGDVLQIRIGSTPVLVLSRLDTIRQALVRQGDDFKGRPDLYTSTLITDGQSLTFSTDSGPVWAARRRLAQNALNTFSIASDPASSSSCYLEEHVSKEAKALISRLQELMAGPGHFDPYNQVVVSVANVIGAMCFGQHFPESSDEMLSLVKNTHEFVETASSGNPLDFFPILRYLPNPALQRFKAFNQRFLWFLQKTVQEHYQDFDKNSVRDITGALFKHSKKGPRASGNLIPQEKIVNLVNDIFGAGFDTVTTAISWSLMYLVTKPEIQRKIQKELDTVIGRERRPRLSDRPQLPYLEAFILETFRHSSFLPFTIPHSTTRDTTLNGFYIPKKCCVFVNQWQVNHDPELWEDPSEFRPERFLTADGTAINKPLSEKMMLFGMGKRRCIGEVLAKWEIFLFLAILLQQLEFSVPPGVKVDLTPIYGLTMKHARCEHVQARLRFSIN

CYP2C9 = CYP2C9 (Homo sapiens, UniProt P11712); details: up to 3 mM (378 mcg/mL)
CYP2C19 = CYP2C19 (Homo sapiens, UniProt P33261); details: up to 3 mM (378 mcg/mL)
CYP2D6 = CYP2D6 (Homo sapiens, UniProt P10635); details: up to 3 mM (378 mcg/mL)
CYP2E1 = CYP2E1 (Homo sapiens, UniProt P05181); details: up to 3 mM (378 mcg/mL)
CYP3A = details: up to 3 mM (378 mcg/mL)
[4] = 6 g per day with diclofenac 50 mg twice per day
[5] = 6 g per day with ibuprofen 800 mg four times per day
pregnant rats = details: 150, 350, or 1,000 mg/kg/day
pregnant rabbits = details: 300, 600, or 1,200 mg/kg/day
rats [6] = details: highest dose tested (1,000 mg/kg/day)
rats [7] = system: rats
rat [8] = details: in vivo
male and female rats = details: 150, 350, or 1,000 mg/kg/day
rats [9] = details: 0, 100, 300, or 900 mg/kg/day

CYP2E1, sequence (P05181 whole entry): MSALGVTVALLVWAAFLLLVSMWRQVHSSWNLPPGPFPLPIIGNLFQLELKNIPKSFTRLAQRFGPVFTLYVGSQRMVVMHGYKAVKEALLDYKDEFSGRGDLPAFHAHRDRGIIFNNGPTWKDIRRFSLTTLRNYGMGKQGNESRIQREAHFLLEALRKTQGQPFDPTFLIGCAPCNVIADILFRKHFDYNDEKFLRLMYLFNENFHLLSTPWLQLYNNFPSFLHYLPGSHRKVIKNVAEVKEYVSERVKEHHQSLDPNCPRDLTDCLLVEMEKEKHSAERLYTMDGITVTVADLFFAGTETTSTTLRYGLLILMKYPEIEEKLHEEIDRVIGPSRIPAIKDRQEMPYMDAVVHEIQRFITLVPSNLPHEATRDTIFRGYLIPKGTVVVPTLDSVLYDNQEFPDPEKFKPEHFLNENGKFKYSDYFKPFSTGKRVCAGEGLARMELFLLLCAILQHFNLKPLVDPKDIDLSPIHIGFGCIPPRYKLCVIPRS
CYP2D6, sequence (P10635 whole entry): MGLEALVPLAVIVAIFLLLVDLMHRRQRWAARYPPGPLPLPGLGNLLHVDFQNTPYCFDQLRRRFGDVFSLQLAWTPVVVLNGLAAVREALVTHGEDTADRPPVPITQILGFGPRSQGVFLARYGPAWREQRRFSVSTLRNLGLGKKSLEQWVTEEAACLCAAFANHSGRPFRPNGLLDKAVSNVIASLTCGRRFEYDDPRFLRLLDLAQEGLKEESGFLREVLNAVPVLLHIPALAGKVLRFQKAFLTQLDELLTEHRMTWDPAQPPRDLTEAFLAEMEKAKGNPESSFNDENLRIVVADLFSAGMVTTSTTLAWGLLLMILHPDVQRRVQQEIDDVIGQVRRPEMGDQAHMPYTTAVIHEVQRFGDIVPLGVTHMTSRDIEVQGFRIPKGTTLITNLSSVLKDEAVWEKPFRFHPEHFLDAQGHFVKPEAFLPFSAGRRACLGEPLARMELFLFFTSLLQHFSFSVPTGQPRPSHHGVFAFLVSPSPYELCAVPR
CYP2C19, sequence (P33261 whole entry): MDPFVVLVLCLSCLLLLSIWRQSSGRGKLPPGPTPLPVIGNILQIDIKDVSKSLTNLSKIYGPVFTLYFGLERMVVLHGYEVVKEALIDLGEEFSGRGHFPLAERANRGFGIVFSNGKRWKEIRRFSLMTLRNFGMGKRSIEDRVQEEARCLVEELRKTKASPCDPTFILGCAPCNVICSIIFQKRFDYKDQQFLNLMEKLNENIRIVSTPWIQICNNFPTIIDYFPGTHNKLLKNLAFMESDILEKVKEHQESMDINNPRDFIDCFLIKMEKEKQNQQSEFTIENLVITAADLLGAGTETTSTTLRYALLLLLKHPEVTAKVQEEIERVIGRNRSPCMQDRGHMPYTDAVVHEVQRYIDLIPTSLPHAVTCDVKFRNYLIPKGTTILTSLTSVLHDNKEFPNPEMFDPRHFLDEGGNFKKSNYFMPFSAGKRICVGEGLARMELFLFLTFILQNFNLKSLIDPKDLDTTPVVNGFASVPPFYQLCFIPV
CYP2C9, sequence (P11712 whole entry): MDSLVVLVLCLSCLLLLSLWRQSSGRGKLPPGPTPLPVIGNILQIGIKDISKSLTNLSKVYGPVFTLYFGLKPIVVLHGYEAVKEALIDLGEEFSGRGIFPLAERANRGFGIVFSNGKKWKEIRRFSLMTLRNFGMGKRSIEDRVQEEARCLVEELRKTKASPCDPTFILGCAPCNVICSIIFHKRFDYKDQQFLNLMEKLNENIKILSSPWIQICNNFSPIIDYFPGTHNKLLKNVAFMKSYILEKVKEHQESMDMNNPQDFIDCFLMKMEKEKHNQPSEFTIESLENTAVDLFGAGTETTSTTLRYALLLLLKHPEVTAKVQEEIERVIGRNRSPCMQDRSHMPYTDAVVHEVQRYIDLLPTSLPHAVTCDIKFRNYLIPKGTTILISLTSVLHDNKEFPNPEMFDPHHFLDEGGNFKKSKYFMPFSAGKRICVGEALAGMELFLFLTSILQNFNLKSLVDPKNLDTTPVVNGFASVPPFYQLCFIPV

For `O=C1CCCO1` [gamma-butyrolactone], the Carcinogenic activity (mouse) is listed as “no clear evidence of carcinogenic activity” and the Carcinogenic activity (rat [1]) is listed as “no clear evidence of carcinogenic activity”.
In the case of `O=C([O-])CCCO.[Na+]` [sodium oxybate, sodium 4-hydroxybutanoate], the “Apparent volume of distribution” value (in vivo) is listed as 0.19 to 0.384 L/kg, the Elimination half-life (in vivo) is listed as 30 to 60 min and the “Unchanged drug in human urine” value (within 6 to 8 hours after dosing) is listed as “less than 5%”. For the same compound, the “Bound to plasma proteins” value (plasma proteins) was “less than 1%”, the “AUC in cirrhotic patients vs normal hepatic function” value ([2]; 25 mg/kg oral) was “double” and the Apparent oral clearance ([2]; Child's Class A) was 4.5 mL/min/kg. For the same compound, the Apparent oral clearance ([2]; Child's Class C) was 4.1 mL/min/kg, the Apparent oral clearance ([2]; healthy adults) was 9.1 mL/min/kg and the “Gender differences in pharmacokinetics of GHB” value [3] was “no gender differences”. For the same compound, the “Inhibition of CYP1A2” value (CYP1A2) was “does not significantly inhibit”, the “Inhibition of CYP2C9” value (CYP2C9) was “does not significantly inhibit” and the “Inhibition of CYP2C19” value (CYP2C19) was “does not significantly inhibit”. For the same compound, the “Inhibition of CYP2D6” value (CYP2D6) was “does not significantly inhibit”, the “Inhibition of CYP2E1” value (CYP2E1) was “does not significantly inhibit” and the “Inhibition of CYP3A” value (CYP3A) was “does not significantly inhibit”. The “Systemic exposure to GHB on co-administration” value [4] was “no significant differences in systemic exposure to GHB”, the “Systemic exposure to GHB on co-administration” value [5] was “comparable systemic exposure to GHB” and the Developmental toxicity (pregnant rats) was “no clear evidence of developmental toxicity”. For the same compound, the Developmental toxicity (pregnant rabbits) was “no clear evidence of developmental toxicity”, the “Pre- and post-natal effects” value (rats [6]) was “increased stillbirths and decreased offspring postnatal viability and body weight gain” and the “Plasma exposure (AUC) relative to humans at the MRHD” value (rats [7]; highest dose tested) was 2 times. For the same compound, the Tumors (rats [7]; up to 1,000 mg/kg/day for 83 (males) or 104 (females) weeks) was “no increase in tumors”, the Bacterial gene mutation (bacteria) was “negative” and the Chromosomal aberration (mammalian cells) was “negative”. For the same compound, the Micronucleus (rat [8]) was “negative”, the Effects on fertility (male and female rats) was “no adverse effects on fertility” and the “Mortality in juvenile rats” value (rats [9]) was “mortality was observed at the two highest doses tested”.
